From PMC2725296, “Interrogating and Predicting Tolerated Sequence Diversity in Protein Folds: Application to E. elaterium Trypsin Inhibitor-II Cystine-Knot Miniprotein” (PLoS Computational Biology, 2009)
No end group written: not given here.

What was measured:
[1] = tested on: trypsin; assay: trypsin binding of individual yeast-displayed EETI loop 3 clones by dual-color flow cytometry; conditions: triplicate; for trypsin binding level as percentage of EETIwt / trypsin binding level relative to EETIwt (fold higher): adjusted for expression (cMyc), normalized to EETIwt; for statistical significance of trypsin binding level over the highest-binding randomly-generated clone: single-factor ANOVA (p<0.02), 25 nM trypsin; for trypsin binding level relative to EETIwt (fold higher): single-factor ANOVA p<0.05 vs EETIwt
Description: In addition, we also constructed twenty-five clones where EETI loop 3 was replaced by a randomly-generated nine-amino acid sequence (Table S2). Plasmids containing DNA encoding for predicted and randomly-generated clones were transformed into yeast and induced for expression on the yeast cell surface as described above. Next, we analyzed the predicted and randomly-generated EETI loop 3 clones by dual-color flow cytometry for yeast cell surface expression and binding to fluorescent trypsin, indicating retention of the knottin fold (Figure 8). […] Overall, the least-similar predicted clones also bound trypsin, but not as well as the motif-filtered clones, as expected. The small differences in trypsin binding levels of six of the least-similar predicted clones as compared to EETIwt were deemed statistically insignificant, based on single-factor ANOVA (p<0.05). […] Even the best randomly-generated clone only bound trypsin at 16% of the wild-type EETI trypsin binding level. The successful prediction of nine-amino acid sequences that can be substituted into EETI loop 3 without disrupting the knottin fold highlights the potential of this combinatorial approach for rational protein engineering applications.
Figure 8 Trypsin-binding levels of EETI loop 3 predicted and randomly-generated clones. […] Predicted clones are preceded with a ‘p’ while randomly-generated clones are preceded with an ‘r.’ Protein expression levels were quantified by immunofluorescence staining of the cMyc epitope tag. Retention of the knottin fold was determined by binding of fluorescently-labeled trypsin (25 nM). Trypsin binding levels were adjusted to account for differences in protein expression levels and then normalized to the trypsin-binding level of EETIwt. Trypsin-binding experiments were performed in triplicate and error bars denote standard deviations.
YPD media contained 20 g/L dextrose, 20 g/L peptone, and 10 g/L yeast extract. Selective SD-CAA media contained 20 g/L dextrose, 6.7 g/L yeast nitrogen base without amino acids, 5.4 g/L Na2HPO4, 8.6 g/L NaH2PO4⋅H2O, and 5 g/L Bacto casamino acids. Selective SD-CAA plates were of the same composition as the liquid media except with the addition of 182 g/L sorbitol and 15 g/L agar. SG-CAA media was identical to the SD-CAA media except dextrose was replaced with galactose. PBSA was composed of phosphate buffered saline containing 1 g/L bovine serum albumin. Lyophilized trypsin was purchased from Sigma Aldrich and fluorescently labeled with Alexa Fluor 488 tetrafluorophenyl ester (Invitrogen). Mouse anti-cMyc antibody was purchased from Covance and goat anti-mouse antibody conjugated to R-phycoerythrin was purchased from Sigma Aldrich.
Four rounds of FACS were performed on each EETI loop-substituted library to obtain an enriched pool of trypsin-binding clones. Libraries of yeast clones induced for protein expression were suspended in PBSA with mouse anti-cMyc monoclonal antibody (1∶50 dilution) and incubated for 1 h at room temperature. Yeast were pelleted by centrifugation at 4,000 rpm for 5 min, the supernatant was aspirated, and cells were washed with ice-cold PBSA. Washed yeast libraries were resuspended in PBSA with goat anti-mouse R-phycoerythrin secondary antibody (1∶25 dilution) and Alexa 488-labeled trypsin and incubated on ice in the dark for 30 min. […] Collected library clones were propagated in SD-CAA media with penicillin-streptomycin (400 µg/mL), induced for protein expression in SG-CAA media and subjected to three additional rounds of sorting. For the first round of sorting, approximately 2×10^7 yeast were sorted from each library, and at least 10 times the number of collected yeast were sorted in each subsequent round to decrease the probability of losing unique clones. Sort stringency was increased by gradually decreasing the concentration of Alexa488-labeled trypsin from 200 nM in the first round to 25 nM in the fourth round. […]

[2] = molecular target: trypsin; assay: equilibrium binding of fluorescently-labeled trypsin to yeast-displayed EETIwt (flow cytometry); conditions: data not shown
Description: We measured cell surface expression levels of the EETIwt fusion protein by flow cytometry, after staining yeast cells with a primary antibody against a C-terminal cMyc epitope tag followed by the addition of a fluorescently-labeled secondary antibody. […] (Figure 2).
Figure 2 Yeast surface display of EETI knottins and isolation of properly folded EETI loop-substituted clones. […] Density plots depict protein expression (x-axis) versus trypsin binding (y-axis) for enriched pools of loop-substituted clones after four rounds of sorting. […] (C) The progression of enrichment for properly folded EETI loop-substituted variants was monitored by flow cytometry and quantified by trypsin binding levels (at 25 nM), normalized for differences in protein expression levels. Unsorted libraries (white), libraries after two rounds of sorting (light grey), and libraries after four rounds of sorting (dark grey), as compared to EETIwt (striped). Trypsin-binding experiments were performed in triplicate and error bars denote standard deviations.
YPD media contained 20 g/L dextrose, 20 g/L peptone, and 10 g/L yeast extract. Selective SD-CAA media contained 20 g/L dextrose, 6.7 g/L yeast nitrogen base without amino acids, 5.4 g/L Na2HPO4, 8.6 g/L NaH2PO4⋅H2O, and 5 g/L Bacto casamino acids. […]

[3] = 25 nM fluorescently-labeled trypsin

NTTNNSPGY (disulfide (positions not given here)) [p25, least-similar predicted EETI loop 3 clone, …]
trypsin binding level as percentage of EETIwt [1, 3]: approximately 30%
statistical significance of trypsin binding level over the highest-binding randomly-generated clone [1]: statistically significant over the highest-binding randomly-generated clone

NNTNTGRGY (disulfide (positions not given here)) [p20, least-similar predicted EETI loop 3 clone, …]
trypsin binding level as percentage of EETIwt [1, 3]: approximately 30%
statistical significance of trypsin binding level over the highest-binding randomly-generated clone [1]: statistically significant over the highest-binding randomly-generated clone

RRNRKTLGY (disulfide) [p9, motif-filtered predicted EETI loop 3 clone, …]
trypsin binding level relative to EETIwt (fold higher) [1, 3]: roughly 1.5 -fold

NRNRKTPGY (disulfide (positions not given here)) [p3, motif-filtered predicted EETI loop 3 clone, …]
trypsin binding level as percentage of EETIwt [1, 3]: approximately 70%

Ecballium elaterium trypsin inhibitor II [EETIwt]
Kd ([2]; Alexa Fluor 488-labeled trypsin, read-out: approximate equilibrium binding constant): ~0.025 µM
trypsin binding specificity, in words ([2]; fluorescently-labeled trypsin): bound specifically

potato carboxypeptidase inhibitor: a knottin that does not bind trypsin; negative control (QQHADPICNKPCKTHDDCSGAWFCQACWNSARTCGPYVG; ends and bridges not checked; cysteine pairing not given here; UniProt P01075 1-39, looked up) [reference compound]
trypsin binding level as percentage of EETIwt [1, 3]: < 5%
trypsin binding, in words ([1]; 25 nM fluorescently-labeled trypsin, yeast surface display): does not bind trypsin

NRNRRRTGY (disulfide (positions not given here)) [p1, motif-filtered predicted EETI loop 3 clone, …]
trypsin binding level relative to EETIwt (fold higher) [1, 3]: roughly 1.5 -fold
